Values quoted from earlier work as cited in patent US10227355B2, “Quinoline derivatives and preparation thereof” (COUNCIL OF SCIENTIFIC AND INDUSTRIAL RESEARCH, priority 2015, dated 2019).

Test system: Plasmodium cynomolgi B
Details: intramuscularly, 7 daily doses of 15 mg/kg; observation period of 120 d; rhesus monkeys

SMILES	anti-relapse (curative) activity
CCCCc1cc2c(O)c(C(=O)OC)cnc2cc1OCCOc1ccccc1 [WR 197236, 6-butyl-4-hydroxy-3-methoxycarbonyl-7-β-phenoxyethoxyquinoline]	curative
CCCCCCCCCCOc1cc2c(OC(C)=O)c(C(=O)OC)cnc2cc1OC(C)C [WR 194905, 4-acetoxy-6-decyloxy-7-isopropoxy-3-methoxycarbonylquinoline]	curative
